The structures appear in SMILES notation. ≈ marks a conversion by molar mass, not a printed value. Bounds are passed on as bounds.

The conditions of the series: buffer; pH 7.4; 200.0 µM.
Compound `O=C(O)c1cc(S(=O)(=O)N2CC3CC3C2C(=O)O)c(Cl)cc1Cl` (stereo not given) gave a solubility (kinetic) of 52.3 µg/mL (≈ 138 µM). The result for `Cc1csc(C(=O)O)c1NC(=O)c1c(Cl)cccc1Cl` reads 40.7 µg/mL (≈ 123 µM); that for `Cc1cc(C)c(C(N)=O)c(Nc2ccc(F)cc2)n1`, greater than 38.9 µg/mL; that for `Cc1oncc1C(=O)Nc1cccc2ccccc12`, 34 µg/mL (≈ 135 µM). The result for `COc1ccc(/C=C2\SC(N3CCCCC3)=NC2=O)cc1OC` reads 8.2 µg/mL (≈ 24.7 µM); that for `CSc1nnc(C)c(=O)n1COC(=O)/C=C/c1ccccc1`, greater than 47.6 µg/mL. Consider `CCC1(C)Cc2nc(Cl)c(C#N)cc2CO1` (stereo not given), for which the kinetic solubility was found to be 34.2 µg/mL (≈ 144 µM). For the compound `COC(=O)c1ccc(C)c(NC(=O)CCCN2C(=O)CN(C)C2=O)c1`, the kinetic solubility was greater than 52.1 µg/mL.

Take `O=C(CSCCOc1ccccc1)NCc1ccncc1`: the solubility (kinetic) was greater than 45.4 µg/mL. The result for `NC(=S)Nc1ccc2c(c1)OCO2` reads greater than 29.4 µg/mL; that for `CC(C)N(C(=O)Cn1c(Cl)nc2ccccc21)C(C)C`, greater than 44.1 µg/mL.

For the compound `COc1ccc(NS(=O)(=O)c2cn(C)cn2)cc1`, the kinetic solubility is greater than 40.1 µg/mL. In turn, `Cc1ccccc1CCN1CCCC(CN(C)CC(C)(C)C)C1` (stereo not given) had a kinetic solubility of 15 µg/mL (≈ 47.4 µM). In turn, `CCCCC(=O)Nc1cc(C)c(NC(=O)c2ccco2)cn1` returned a kinetic solubility greater than 45.2 µg/mL. `CNC(=O)c1ccccc1NC(=O)C1CC(=O)N(C(C)C)C1` (stereo not given) came in with a solubility (kinetic) of 44.7 µg/mL (≈ 147 µM). The result for `Cc1cccc(C(=O)NCC(=O)OCC(=O)c2ccc(C)s2)c1` reads greater than 49.7 µg/mL; that for `Cc1cccc(N2CCN(C(=O)c3cccs3)CC2)c1C`, 23.8 µg/mL (≈ 79.2 µM). The result for `Cc1ccccc1NC(=O)CN1CCc2ccccc2C1` reads 24.8 µg/mL (≈ 88.5 µM); that for `O=C(Nc1ccncc1)OCc1ccccc1`, greater than 34.2 µg/mL. The figure for `O=C(CN1C(=O)C(=O)N(CCC2=CCCCC2)C1=O)c1c[nH]c2ccccc12` is 3.2 µg/mL (≈ 8.43 µM); for `Cc1ccc([N+](=O)[O-])cc1N(CC(=O)N1CCCCC1)S(C)(=O)=O` it is greater than 53.3 µg/mL. As for `Cc1ccc(Sc2ncccc2O)cc1`, the solubility (kinetic) amounted to 17.4 µg/mL (≈ 80.1 µM).

`c1ccc2[nH]c(CCCCc3nc4ccccc4[nH]3)nc2c1` displayed a solubility (kinetic) of 43.4 µg/mL (≈ 149 µM).

Compound `CCC(=O)Nc1cccc(C(=O)OC)c1` had a kinetic solubility of 29.4 µg/mL (≈ 142 µM). `Cc1ccc(S(=O)(=O)NCc2cccnc2)cc1C` gave a kinetic solubility greater than 41.5 µg/mL. `Cc1cc(C(=O)Nc2sccc2C#N)c2ccccc2n1` showed a solubility (kinetic) of 20.8 µg/mL (≈ 70.9 µM).

The compound `O=C(CCc1ccccc1)Nc1cc2c3c(c1)CC(=O)N3CCC2` returned a kinetic solubility greater than 48.1 µg/mL.

For `O=C(O)CNC(=O)/C=C/c1ccc(Cl)cc1Cl`, the kinetic solubility is 37.6 µg/mL (≈ 137 µM). `CN1C(=O)c2ccc(C(=O)NCc3ccccn3)cc2C1=O` gave a kinetic solubility greater than 44.3 µg/mL. The result for `CC(C)CNS(=O)(=O)c1cc(C(=O)O)c(Cl)cc1Cl` reads greater than 48.9 µg/mL; that for `O=C(COC(=O)c1ccccc1Br)NCC1CCCCC1`, 38.1 µg/mL (≈ 108 µM); that for `Cc1ccc(C)c(C(C)NC(=O)c2ccncc2)c1` (stereo not given), 36 µg/mL (≈ 142 µM). The figure for `O=C(NCCc1ccccc1)c1cccc(N2C(=O)C3CC=CCC3C2=O)c1` (stereo not given) is 47.2 µg/mL (≈ 126 µM). `CC(N)Cc1cn(Cc2ccccc2)c2ccccc12.Cl` (stereo not given) displayed a kinetic solubility greater than 45.1 µg/mL. For the compound `[O-]/[N+](=C\c1ccco1)c1ccc(Cl)cc1`, the solubility (kinetic) amounted to 32.5 µg/mL (≈ 147 µM). The figure for `O=c1c2ccccc2[nH]c(=S)n1Cc1ccccc1` is less than 0.3 µg/mL; for `CCSc1nc(NCCN(C)C)c2c3c(sc2n1)COC(C)(CC)C3` (stereo not given) it is 46.4 µg/mL (≈ 122 µM). The figure for `O=C(CCCOc1ccccc1)NNC(=O)c1ccncc1` is greater than 44.9 µg/mL; for `Cc1cc(C)cc(OCCCn2ccnc2)c1` it is 26.4 µg/mL (≈ 115 µM); for `CN1CCN(C(=S)c2cn(Cc3ccccc3)c3ccccc23)CC1` it is 30.8 µg/mL (≈ 88.1 µM). The figure for `O=c1cc(-c2ccccc2)nc(SCc2ccccc2F)[nH]1` is less than 0.3 µg/mL; for `Cc1ccc(/C=C/C(=O)OCC(=O)NCCc2ccc(S(N)(=O)=O)cc2)o1` it is greater than 58.9 µg/mL; for `CN1c2ccccc2Sc2cc(N)ccc21` it is 25.6 µg/mL (≈ 112 µM).

In turn, `CCOC(=O)c1cc(-c2csc(Nc3c(C)cc(C)cc3C)n2)on1` yielded a kinetic solubility of 0.4 µg/mL (≈ 1.12 µM). The figure for `Cc1c(Cl)cccc1NC(=O)CCN1CCN(C)CC1` is greater than 44.4 µg/mL; for `O=C(Cn1ncc2c([nH]c3ccccc32)c1=O)N1CCOCC1` it is greater than 46.8 µg/mL.

Turning to `COc1ccc(-c2cc(C(=O)N3CCCCC3)c3ccccc3n2)cc1`, the solubility (kinetic) came out at 33.5 µg/mL (≈ 96.7 µM).

For `CN(c1ccccc1)S(=O)(=O)c1cccc(C(=O)OCC(=O)NCc2ccccc2)c1`, the solubility (kinetic) turned out to be 11.1 µg/mL (≈ 25.3 µM).

For the compound `COc1ccccc1NC(=O)CNC(=O)CC12CC3CC(CC(C3)C1)C2`, the kinetic solubility came to 43.1 µg/mL (≈ 121 µM). The figure for `CCOCCCN1CC(C(=O)NCc2ccc3c(c2)OCO3)CC1=O` (stereo not given) is greater than 52.3 µg/mL; for `Cc1cnc(C(=O)NCCc2ccc(C(F)(F)F)cc2)cn1` it is 11.9 µg/mL (≈ 38.5 µM).

In the case of `Cc1ccc(Oc2ncnc(N)c2[N+](=O)[O-])cc1`, the solubility (kinetic) was 12.3 µg/mL (≈ 50 µM). For the compound `COc1ccc2c(C(=O)CCl)c[nH]c2c1`, the solubility (kinetic) was 5.3 µg/mL (≈ 23.7 µM).

The compound `O=C(CN1C(=O)NC2(CCCC2)C1=O)NCCc1ccccc1` gave a solubility (kinetic) of 44.8 µg/mL (≈ 142 µM).

Regarding `Nc1ncnc2c1ncn2CCc1ccccc1`, the kinetic solubility was greater than 35.9 µg/mL.

As to `O=C(/C=C/c1cccc(Cl)c1)NCc1ccccc1`, the kinetic solubility stood at 3.4 µg/mL (≈ 12.5 µM). The compound `CC12CCC(=O)N1C(C(=O)NCCc1ccc(F)cc1)CS2` (stereo not given) had a solubility (kinetic) of 46.3 µg/mL (≈ 144 µM). The result for `O=C(CC(c1ccccc1)c1ccccc1O)N1CCCCC1` (stereo not given) reads greater than 46.4 µg/mL. For `Cc1onc(-c2ccccc2)c1CNC(=O)C1COc2ccccc2O1` (stereo not given), the solubility (kinetic) was determined as 46.2 µg/mL (≈ 132 µM). The result for `Cc1c(C(=O)NCCSCc2ccccc2)cccc1[N+](=O)[O-]` reads 46.6 µg/mL (≈ 141 µM); that for `Cc1ccc2cc(NC(=O)Cc3ccccc3)ccc2n1`, 32.6 µg/mL (≈ 118 µM); that for `Cc1cccc(OCC(=O)NC2CCCCCC2)c1C`, less than 0.6 µg/mL. The result for `CC(C)NCC(=O)Nc1c2c(nc3ccccc13)CCC2.O=C(O)C(=O)O` reads greater than 56 µg/mL; that for `CC(C)(C)c1csc(NC(=O)c2cccnc2Cl)n1`, 40.4 µg/mL (≈ 137 µM). The figure for `CC(C)CCSc1cc(NCCO)c([N+](=O)[O-])c2nonc12` is 10 µg/mL (≈ 30.6 µM); for `CCc1ccccc1NC(=S)N(CCN(C)C)C(C)c1cccnc1` (stereo not given) it is 50.9 µg/mL (≈ 143 µM). `O=C(c1ccco1)N1CCN(CCOc2ccccc2)CC1` came in with a solubility (kinetic) of 42.7 µg/mL (≈ 142 µM). Compound `O=[N+]([O-])c1ccccc1S(=O)(=O)NCCSc1ccccc1` had a solubility (kinetic) of 16.5 µg/mL (≈ 48.8 µM). `Cc1cc(NC(=O)CSc2ncccc2C(=O)O)no1`: the solubility (kinetic) is greater than 44 µg/mL. Compound `C/C(=C\c1ccccc1)C(=O)N1CCN(Cc2ccc3c(c2)OCO3)CC1` yielded a solubility (kinetic) of 51.8 µg/mL (≈ 142 µM). The compound `COc1ccc(/C(N)=N/OC(=O)CCC2CCCC2)cc1OC` came in with a solubility (kinetic) of 8 µg/mL (≈ 25 µM). The figure for `Cc1cc(Br)ccc1NC(=O)CN(C)C(=O)C1=COCCO1` is greater than 55.4 µg/mL. Consider `CNC(=S)Nc1cc(C)ccc1OC(F)F`, for which the solubility (kinetic) is greater than 36.9 µg/mL. The figure for `COc1cc(C(=O)OCC(=O)NCC2CCCO2)cc(OC)c1OC` (stereo not given) is greater than 53 µg/mL; for `O=C1CN(C(=O)CNC(=O)c2ccc(Cl)cc2Cl)CCN1` it is 47.4 µg/mL (≈ 144 µM). The result for `CC(C)CC1NC(=O)N(CC(=O)N(C)C2CCCCC2)C1=O` (stereo not given) reads greater than 46.4 µg/mL; that for `O=C(NC1CCS(=O)(=O)C1)c1cc(-c2ccccc2)nc2ccccc12` (stereo not given), greater than 55 µg/mL; that for `O=[N+]([O-])c1ccccc1OCCOc1ccccc1[N+](=O)[O-]`, less than 0.3 µg/mL. The figure for `Cc1ccnc(SCC(=O)Nc2cc(C)on2)n1` is greater than 39.6 µg/mL; for `COc1cc(NC(=O)c2ccccc2[N+](=O)[O-])ccc1NC(=O)c1cc2ccccc2o1` it is 0.7 µg/mL (≈ 1.62 µM); for `CC(=O)Nc1nc2c(C)cc(NC(=O)C3CCCCC3)cc2s1` it is 0.7 µg/mL (≈ 2.11 µM). For the compound `COc1cccc(NC(=O)c2cncs2)c1`, the solubility (kinetic) was determined as 32.9 µg/mL (≈ 140 µM). The figure for `O=C(COC(=O)/C=C/c1cccc(Cl)c1)NC1CC1` is 4.8 µg/mL (≈ 17.2 µM); for `Cn1c(=O)oc2cc(S(=O)(=O)Nc3ccc(O)cc3)ccc21` it is greater than 48 µg/mL.

As to `O=C(CC1S/C(=N/N=C2CCCCCC2)NC1=O)Nc1ccccc1F` (stereo not given), the solubility (kinetic) was greater than 56.5 µg/mL. With `CC(C)N(Cc1ccccc1)C(=S)Nc1ccccc1F`, the solubility (kinetic) amounted to 40 µg/mL (≈ 132 µM).

With `O=C(OCC(=O)N1CCc2ccccc21)c1ccncc1`, the kinetic solubility is 33.1 µg/mL (≈ 117 µM). `O=C(CS(=O)(=O)c1ccc2ccccc2c1)N1CCCCCC1`: the kinetic solubility amounted to 47.1 µg/mL (≈ 142 µM). With `CC1CCCN(C(=O)c2ccc3c(c2)OCCO3)C1` (stereo not given), the solubility (kinetic) is greater than 39.2 µg/mL. The figure for `CNC(=O)NC(=O)C(C)Oc1ccccc1F` (stereo not given) is 34.9 µg/mL (≈ 145 µM); for `Cc1cccc(-c2nc(C#N)c(N3CCCCC3)o2)c1` it is 0.4 µg/mL (≈ 1.5 µM); for `O=C(COc1ccc(S(=O)(=O)N2CCCC2)cc1)N1CCCCC1` it is 47.6 µg/mL (≈ 135 µM).

The compound `Nc1nc(NCC2CCCO2)nc(Nc2ccccc2F)c1[N+](=O)[O-]` (stereo not given) registered a solubility (kinetic) of 0.6 µg/mL (≈ 1.72 µM). For `CC(=O)Cc1nsc(Nc2ccc(C)cc2)n1`, the kinetic solubility is 35.9 µg/mL (≈ 145 µM). The figure for `CC(Sc1ccc([N+](=O)[O-])cn1)C(=O)Nc1nccs1` (stereo not given) is 5 µg/mL (≈ 16.1 µM). In turn, `COc1ccccc1C(=O)NCCC(=O)N1CCCCC1` displayed a kinetic solubility greater than 43.6 µg/mL. In the case of `O=C(NCc1ccc2c(c1)OCO2)c1cc(=O)[nH]c2ccccc12`, the solubility (kinetic) was 6 µg/mL (≈ 18.6 µM). The result for `CCOC(=O)c1csc(-c2ccc([N+](=O)[O-])cc2)n1` reads 5.6 µg/mL (≈ 20.1 µM); that for `COc1ccc(CCN2C(=O)CSC2c2ccc(F)cc2)cc1` (stereo not given), 34.4 µg/mL (≈ 104 µM). The figure for `CC(C)COc1ccc(C(=O)OCC(=O)NCc2cccs2)cc1` is 1.1 µg/mL (≈ 3.17 µM); for `CCNC(=S)Nc1ccc(Cc2ccncc2)cc1` it is 38.3 µg/mL (≈ 141 µM).

`O=C1CSC(=S)N1c1ccc(O)cc1` yielded a kinetic solubility of 28.1 µg/mL (≈ 125 µM). Take `C#CCOc1ccccc1/C=C1/C(=O)ON=C1C`: the kinetic solubility was found to be 34.9 µg/mL (≈ 145 µM). The figure for `Cc1c(C(C)(C)C)s/c(=N/S(=O)(=O)c2ccccc2)n1C` is 43.7 µg/mL (≈ 135 µM); for `CCC(=O)Nc1ccc2c(c1)nc(CCN1CCC(C)CC1)n2C` it is greater than 49.3 µg/mL.

These data come from PubChem BioAssay AID1996.
